In patent publication US9045563B2, “CXC chemokine receptor 4 (CXCR4) antagonistic polypeptide” (priority 2007, dated 2015):
Ends that are not written are not given here.

What was measured:
[1] = system: X4 tropic HIV-1 variants NL4-3, P51-Sc, P59-S/27 and P34-S; conditions: TZM-bl cells, 100 μM peptide
Protocol: (§1) 5000 TZM-bl cells were seeded in 100 μl of DMEM (10% FCS, 100 U/ml of penicillin G and 100 μg/ml of streptomycin sulfate). ALB408-423 was dissolved in PBS (10 mg/ml). One day later, 20 μl serial dilutions of ALB408-423 in PBS were added to cells and cells were subsequently infected with 0.5 ng of p24 antigen HIV-1 in a total volume of 200 μl. HIV-1 molecular clones differing in coreceptor tropism were used and generated as described (Papkalla et al., J. Virol. 76: 8455-9, 2002).
(§2) FIG. 3: Chemically synthesized ALB408-423 specifically blocks X4 tropic HIV-1 infection. TZM-bl cells containing indicated dilutions of peptide were infected with HIV-1 variants differing in their coreceptor tropism. 3 days later Gal Screen assay was used to measure infection rates. […] B) Infection rates in the presence of 500 μg/ml ALB408-423 showing that the peptide specifically blocks X4 but not R5 tropic HIV-1 infection. Data shown are mean values±standard deviation derived from triplicate infections relative to PBS containing cells (100% infection).
(§3) After 3 days, infection was detected using GalScreen assay (TROPIX) (example 1). […] In contrast, CCR5 tropic HIV-1 variants were not inhibited even in the presence of very high doses of ALB408-423 (500 μg/ml) (FIG. 3B). Due to the specific inhibition of the infection caused by X4-tropic HIV-1 variants, it is to be assumed that ALB408-423 interacts with the chemokine receptor CXCR4.
(§4) Virus stocks were first titrated on TZM-bl cells. Then TZM-bl cells containing 100 μM of peptides were infected with infectivity normalized amounts of X4, dualtropic (X4/R5) or R5 tropic HIV-1.
(§5) FIG. 10. ALB408-423 and truncated ALB derivatives specifically block X4 tropic HIV-1 infection. TZM-bl cells either containing PBS or 100 μM of indicated peptides were infected with normalized infectivities of X4, dualtropic or R5 tropic HIV-1 clones. Infection rates were measured 2 days post infection using the GalScreen assay. Shown are mean values (% of PBS treated control)±standard deviations derived from triplicate measurements.

[2] = system: CCR5 tropic HIV-1 variants; test: Infection of TZM-bl cells by R5 tropic HIV-1 variants, GalScreen; assay type: cell-based; conditions: 100 μM peptide
Protocol: as §1, §2, §3, §4, §5

[3] = system: dual tropic (CXCR4 and CCR5 using) variant 92ht593.1; test: Infection of TZM-bl cells by dual tropic HIV-1, GalScreen; assay type: cell-based; conditions: 100 μM peptide
Protocol: as §1, §2, §3, §4, §5

[4] = system: X4 tropic HIV-1 NL4-3; conditions: TZM-bl cells; for IC50: read-out: IC50 ± SEM, X4 tropic HIV-1 NL4-3, two days post infection, synthetic peptides
Protocol: HIV inhibition test were performed by seeding 4000 P4-R5 MAGI cells (P. Charneau et al., J. Mol. Biol. 241: 651, 1994) in 100 μl of DMEM (10% FCS, 100 U/ml penicillin G, and 100 μg/ml streptomycin sulfate). P4-R5 cells are stably transfected with an LTR-lacZ cassette and upon successful infection by HIV-1 will express—galactosidase in a Tat-dependent manner, which can be detected in a chemiluminescence test. On the following day, aliquots of the fractions were added. Therefor the lyophilized fractions were resuspended in 80 μl of DMEM, and 25 μl each thereof was pipetted to P4-R5 cells, incubated at 37° C. for 1 hour and subsequently infected with HIV-1 NL4—3 (1 ng of p24 antigen). Virus stocks were obtained by transient infection of 293T cells with proviral DNA by the calcium phosphate method (CalPhos™ Mammalian Transfection Kit, Clontech). Virus stocks were harvested 48 hours post transfection, filtrated and used for infection. Three days post infection, β-galactosidase activity in infected P4-R5 cells was detected using GalScreen assay (TROPIX) as recommended by the manufacturer. Briefly, supernatant was removed, 40 μl of a 1:1 dilution of PBS/GalScreen+substrate was added, followed by incubation at room temperature for 30 min. Then 30 μl of the lysates were transferred into 96 well lumiplates. Subsequently, the lumines-cence was detected as relative light units per second in a luminometer (Berthold, ORION). From all measurements, the mean β-galactosidase background activity of non-infected control cells was subtracted. % infection values for each infection were calculated relative to no peptide containing controls (100%). The enzyme activities in measurements without ALB408-423 were set at 100%, and all other values were based thereon. The final purification (7th step) was examined under exactly the same conditions in TZM-bl cells (X. Wei et al., Antimicrob. Agents Chemother. 46: 1896, 2002).
1.6 mg of fraction 31 from the 7th step in Example 1 was dissolved in 160 μl of DMEM. Subsequently, 10 μl of serial dilutions of fraction 31 containing ALB408-423 were added to 60 μl of TZM-bl cells (60 μl) and infected with 1 ng of p24 antigen HIV-1 NL4—3 in a total volume of 100 μl. Three days later, infection rates were determined in a GalScreen assay (see Example 1).
as §1
Table 1. Antiviral activity of various ALB fragments against X4 tropic HIV-1 NL4-3 infection. TZM-bl cells containing serial dilutions of synthetic peptides were infected with HIV-1 NL4-3 and infection rates were determined and calculated as described in example 1 and 2 at two days post infection. IC50 values were determined using the GraphPad Prism software package.
Various ALB408-423 derivatives containing N or C terminal deletions or amino acid substitutions (Table 1) were chemically synthesized and lyophilized peptides were dissolved in PBS. The antiviral activity was analyzed in TZM-bl cells using X4 tropic HIV-1 NL4-3 as described (example 4).

[5] = system: X4 tropic HIV-1 NL4-3; test: X4 tropic HIV-1 infection and replication in PBMC, p24 antigen ELISA; assay type: cell-based; conditions: 100 μM peptide, day 6 post infection
Protocol: To analyze the effect of ALB408-423 and derivatives thereof in relevant primary cells, peripheral blood mononuclear cells were isolated from Buffy coat derived from the DRK-Blutspendedienst Baden-Württemberg-Hessen using Ficoll density centrifugation. 1×10^6 PBMC per ml were stimulated with 1 μg/ml phytohemagglutinine (PHA, Oxoid, #3085280) and 10 ng/ml Interleukin 2 (IL-2, Strathmann, #9511192) for three days. Thereafter cells were pelleted and resuspended in IL-2 containing medium. 1.5×10^5 PBMC (250 μl) were seeded in 96 well dishes, peptides were added and cells were infected with […] p24 antigen of X4 tropic HIV-1 NL4-3. Supernatants containing progeny virus were taken at day 1, 3 and 6 post infection. Virus production was measured by p24 antigen ELISA (SAIC-Frederick, Inc [AIDS & Cancer virus program]). […] In the presence of 20 μM peptides virus replication was severely impaired.
FIG. 11. ALB408-423 and derivatives inhibit X4 tropic HIV-1 infection of peripheral blood mononuclear cells (PBMC). Cells were incubated with indicated concentrations of ALB408-423 or truncated variants and infected with X4 tropic HIV-1. Supernatants obtained after 6 days were analyzed by p24 ELISA. Shown are mean p24 antigen values (ng/ml) derived from triplicate infections±standard deviation.

[6] = target: CXCR4 (Homo sapiens, UniProt P61073); parameters: expressed in transfected cells; conditions: read-out: dissociation constant of fluorescent CXCL12 for the CXCR4 receptor; cited from earlier work
Chain of CXCR4 (P61073 whole entry): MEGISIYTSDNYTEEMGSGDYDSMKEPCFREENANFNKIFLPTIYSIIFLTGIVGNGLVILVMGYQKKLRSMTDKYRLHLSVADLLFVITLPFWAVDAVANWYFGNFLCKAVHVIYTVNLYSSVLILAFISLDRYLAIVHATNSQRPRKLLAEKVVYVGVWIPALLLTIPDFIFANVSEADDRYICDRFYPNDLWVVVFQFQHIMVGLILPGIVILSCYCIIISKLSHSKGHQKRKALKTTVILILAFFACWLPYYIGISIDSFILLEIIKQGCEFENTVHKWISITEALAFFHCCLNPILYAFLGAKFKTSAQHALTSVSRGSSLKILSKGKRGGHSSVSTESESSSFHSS

Substance	IC50 [4]	antiviral activity against X4 tropic HIV-1 NL4-3 (words, SAR study) [4]	also measured
LVRYAKKV [ALB-T412A, LVRYAKKV]	11.2 ± 0.1 µM		block of infection by X4 tropic HIV-1 clones (NL4-3, P51-Sc, P34-s) [1]: almost completely; effect on R5 tropic HIV-1 infection [2]: no effect; inhibition of dualtropic HIV-1 clone 92ht593.1 [3]: only moderately
LVRYTKKA [ALB-V415A, LVRYTKKA]	33 µM		
FVRYTKKVPQVS [ALB408F-419, FVRYTKKVPQVS]		inactive peptides	
LVRYTKKVPQ [ALB408-417, LVRYTKKVPQ]	19.9 ± 4.1 µM	remained active	
LVRYTKKVPQVSTPT [ALB408-422, LVRYTKKVPQVSTPT]		remained active	
IVRYTKKVPQVS [ALB408I-419]	1.55 ± 1.2 µM		block of infection by X4 tropic HIV-1 clones (NL4-3, P51-Sc, P34-s) [1]: almost completely; effect on R5 tropic HIV-1 infection [2]: no effect; inhibition of dualtropic HIV-1 clone 92ht593.1 [3]: only moderately; p24 antigen in supernatants [5]: No p24 antigen could be detected
TKKVPQVSTPTL [ALB412-423, TKKVPQVSTPTL]	> 100 µM	severely impaired or abrogated antiviral activity	
AVRYTKKVPQVS [ALB408A-419, AVRYTKKVPQVS]		inactive peptides	
LVAYTKKV [ALB-R410A, LVAYTKKV]	> 1000 µM		
YTKKVPQVSTPTL [ALB411-423, YTKKVPQVSTPTL]		severely impaired or abrogated antiviral activity	
LVRYTKKVPQVST [ALB408-420, LVRYTKKVPQVST]		remained active	
LVRYTKKV [ALB408-415, LVRYTKKV]	17.4 ± 6.5 µM	remained active	
fluorescent CXCL12: synthesized human chemokine CXCL12 labeled with Texas Red, fluorescent CXCR4 ligand			Kd [6]: 0.055 ± 0.015 µM
LVRYTKKVPQVSTP [ALB408-421, LVRYTKKVPQVSTP]		remained active	
ALB408-416: SEQ ID No 15; C terminal truncation of ALB408-423, sequence not printed in Table 1 (LVRYTKKVP; listed as Homo sapiens)		remained active	
LVRYTKKVPQVS [ALB408-419, LVRYTKKVPQVS]	4.4 ± 1 µM	remained active	block of infection by X4 tropic HIV-1 clones (NL4-3, P51-Sc, P34-s) [1]: almost completely; effect on R5 tropic HIV-1 infection [2]: no effect; inhibition of dualtropic HIV-1 clone 92ht593.1 [3]: only moderately; p24 antigen in supernatants [5]: only marginal p24 levels
KVPQVSTPTL [ALB414-423, KVPQVSTPTL]		severely impaired or abrogated antiviral activity	
LVRYTKK [ALB408-414, LVRYTKK]		remained active	
VPQVSTPTL [ALB415-423, VPQVSTPTL]	> 100 µM	severely impaired or abrogated antiviral activity	
RYTKKVPQVSTPTL [ALB410-423, RYTKKVPQVSTPTL]	> 100 µM	severely impaired or abrogated antiviral activity	
LVRYTAKV [ALB-K413A, LVRYTAKV]	56 µM		
LLVRYTKKVPQVS [ALB407-419, LLVRYTKKVPQVS]		reduced its antiviral activity	
LVRYTKAV [ALB-K414A, LVRYTKAV]	31 µM		
LVRYTKKVPQV [ALB408-418, LVRYTKKVPQV]		remained active	
GVRYTKKVPQVS [ALB408G-419, GVRYTKKVPQVS]		inactive peptides	
LARYTKKV [ALB-V409A, LARYTKKV]	32.9 µM		
KKVPQVSTPTL [ALB413-423, KKVPQVSTPTL]	> 100 µM	severely impaired or abrogated antiviral activity	
LVRATKKV [ALB-Y411A, LVRATKKV]	91 µM		
